Assay results: patent US6797699B1, “Neuroprotective agents” (University of Southampton, priority 1997, dated 2004)

Test system: NMDA receptor-mediated neurotoxicity in organotypic hippocampal slice cultures
Assay: NMDA receptor-mediated neurotoxicity in organotypic hippocampal slice cultures
Assay type: cell-based, Wistar rat
Details: 300 μM throughout the experiment, PI at 24 hours
Experimental: Organotypic hippocampal slice cultures were prepared and maintained as described above. NMDA was prepared as a 50 mM stock solution in distilled water, and diluted as required in SF medium. Neurotoxicity was induced by placing cultures in SF medium containing either 10 μM or […] NMDA for 180 minutes. After this time, cultures were replated in SF-medium and maintained for 24 hours in the incubator. Either 300 μM L-ArgSp or vehicle (SF medium) was added to the culture medium pre-, during and post-NMDA exposure. Throughout the duration of the experiment, 5 μg/ml PI was included in the medium. After 24 hours, neuronal damage was determined by PI fluorescence imaging and quantified as described previously.

## N=C(N)NCCCC(N)C(=O)NCCCNCCCCN [Compound A, N′-L-Arginylspermidine]
10 μM NMDA for 180 minutes
  damage produced by NMDA (PI fluorescence, in words): did not reduce the damage
30 μM NMDA for 180 minutes
  damage produced by NMDA (PI fluorescence, in words): did not reduce the damage
